Test system: serum-induced cytosolic Ca2+ increase in HEK293A cells
Assay: Counter assay: serum-induced cytosolic Ca2+ increase in HEK293A cells expressing aequorin in cytosol
Assay type: cell-based, human
Details: read-out: concentration used to decrease the serum-induced cytosolic Ca2+ increase by 50%
Experimental: In the first screening using the cell-based assay, application of 10% fetal bovine serum to the cells triggered a rapid increase of mitochondrial Ca^2+ level (Figure 1a). Pretreatment of the cells with DS16570511 inhibited the serum-induced mitochondrial Ca^2+ influx with an IC50 of 7 μM (Figures 1a and b). In order to eliminate broad channel inhibitors or chemicals affecting the aequorin-based detection system, a counter assay was carried out using HEK293A cells expressing aequorin in cytosol. In the assay, the concentration of DS16570511 used to decrease the serum-induced cytosolic Ca^2+ increase by 50% was ~50 μM.
For dynamic measurements of mitochondrial Ca^2+ levels in intact cells, HEK293A cells were stably transfected with pIRES-puro vector expressing mitochondria-targeted aequorin.[20] One day after plating on a 15-cm dish (8×10^6 cells/dish), the cells were harvested and incubated with 2.5 μM coelenterazine h in aequorin assay buffer (200 mM Hanks Balanced Salt Solution, 25 mM HEPES (pH 7.0) and 0.1% bovine serum albumin) for 2 h at room temperature. The cells (8.1×10^4 cells/well) were then treated with DS16570511 for 20 min in a 96-well plate at room temperature. For induction of intracellular Ca^2+, the cells were treated with 10% fetal bovine serum, and luminescence levels were measured by using a Centro LB960 luminometer (Berthold Technologies, Oak Ridge, TN, USA).

Molecule Cc1onc(-c2c(Cl)cccc2Cl)c1CNc1cccc(C(=O)c2cn(CCCC(=O)O)c3ccccc23)c1 [DS16570511] has an IC50 of ~50 µM.

— PMC5511861, “DS16570511 is a small-molecule inhibitor of the mitochondrial calcium uniporter” (Cell Death Discovery, 2017)
